Read-outs that look alike come from different tables or passages of the source.
Test: Plasma pharmacokinetics with loading dose and weekly or twice weekly maintenance dosing, fed (Example 5)
Format: in vivo, human
Conditions: for AUC: read-out: Mean AUCτ (SD); for Tmax: read-out: Median tmax (min-max); for Cmax: read-out: Mean Cmax (SD)
Method: A pharmaceutical formulation comprising Compound (a) as described in Example 2 (SF2a/b) was administered as an oral dosage form, to healthy adult participants, in a fed state. Four dose regimens were applied: • Panel I (weekly dosing): 450 mg of Compound (a) twice a day (BID) for two days: on day 1 (D1) and on day 2 (D2) (loading dose); and then 900 mg once a week (Q7D), on day 3 (D3), day 10 (D10), day 17 (D17), and on day 24 (D24) (maintenance dose). • Panel II (biweekly dosing): 450 mg of Compound (a) twice a day (BID) for two days: on day 1 (D1) and on day 2 (D2); (loading dose) and then 450 mg once every 3 (Q3D) or 4 days (Q4D): on day 3 (D3), on day 6 (D6), on day 10 (D10), on day 13 (D13), on day 17 (D17), on day 20 (D20), on day 24 (D24), and on day 27 (D27), for a total of 900 mg each week administered through two doses of 450 mg each (maintenance dose). • Panel III (weekly dosing): 150 mg of Compound (a) twice a day (BID) for two days: on day 1 (D1) and on day 2 (D2) (loading dose); and then 300 mg once a week (Q7D): on day 3 (D3), day 10 (D10), day 17 (D17), and on day 24 (D24) (maintenance dose). • Panel IV (biweekly dosing): 150 mg of Compound (a) twice a day (BID) for two days: on day 1 (D1) and on day 2 (D2) (loading dose); and then 150 mg Q3D or Q4D: on day 3 (D3), on day 6 (D6), on day 10 (D10), on day 13 (D13), on day 17 (D17), on day 20 (D20), on day 24 (D24), and on day 27 (D27), for a total of 300 mg each week administered through two doses of 150 mg each (maintenance dose).
Oral dosage forms were administered together with approximately 240 mL of non-carbonated water under fed conditions, and were taken within 10 minutes after completion of normal standardized normal fat breakfast in the morning or after completion of normal standardized normal fat dinner in case of evening dosing. Intake of Compound (a) took place at around the same time each day. Intake of Compound (a) marked time 0 hours.
A standardized normal fat meal was served approximately 30 minutes before study drug intake. The standardized normal fat meal contained approximately 21 g of fat, 67 g of carbohydrates, 19 g of proteins resulting in around 533 kcal (an example meal is 4 slices of bread, 2 slices of ham or cheese, butter, jelly, and 1 or 2 cups (up to 355 mL) of decaffeinated coffee or tea with milk and/or sugar). The standardized normal fat meal was ingested entirely within 30 minutes or less. Within 10 minutes after completing the meal, but no more than 30 minutes after the start of the meal, study drug was administered. In case of Compound (a) intake in the evening, timing of standardized dinner was aligned to time of drug intake. […]
For Study Panel 1 only, additional whole blood samples were be collected on Days 1, 24, 25, 26, 38, 45, 51, and 59 using venipuncture. The whole blood samples were be used for the determination of Compound (a) whole blood concentrations and for determination of Compound (a) plasma concentrations. To determine Compound (a) venous whole blood concentrations, an aliquot of the whole blood sample was be pipetted onto the TASSO M-20 for better comparison with capillary whole blood samples collected by TASSO M-20. […]
Separation between metabolites and interfering endogenous compounds was achieved by injecting 2 μL sample extract onto an Acquity UPLC BEH C18 column (50×2.1 mm, 1.7 μm, Waters) at 50° C. and using 10 mM ammonium bicarbonate solution as mobile phase A, and methanol: acetonitrile (50:50, v/v) as mobile phase B. A gradient elution at a flow rate of 0.600 mL/min was applied using the following program: 35% B was increased to 90% B in 3 min, was further increased to 98% B at 3.01 min and held constant up to 4.00 min.
A Triple Quad 6500+ mass spectrometer (Sciex) equipped with a turbo ion spray source was used for analyte detection in positive ion mode using electrospray ionization. […]

[1] = Panel I (450 mg BID Days 1-2, then 900 mg Q7D; SF2a/b, fed), Day 2
[2] = Panel II (450 mg BID Days 1-2, then 450 mg Q3D/Q4D; SF2a/b, fed), Day 2
[3] = Panel III (150 mg BID Days 1-2, then 300 mg Q7D; SF2a/b, fed), Day 2
[4] = Panel IV (150 mg BID Days 1-2, then 150 mg Q3D/Q4D; SF2a/b, fed), Day 2
[5] = human, plasma, oral, 150 mg, Panel III (150 mg BID Days 1-2, then 300 mg Q7D; SF2a/b, fed), Day 1
[6] = human, plasma, oral, 150 mg, Panel III (150 mg BID Days 1-2, then 300 mg Q7D; SF2a/b, fed), Day 2
[7] = human, plasma, oral, 150 mg, Panel IV (150 mg BID Days 1-2, then 150 mg Q3D/Q4D; SF2a/b, fed), Day 3
[8] = human, plasma, oral, 150 mg, Panel IV (150 mg BID Days 1-2, then 150 mg Q3D/Q4D; SF2a/b, fed), Day 27

Mean Cmin (SD) (Panel I (450 mg BID Days 1-2, then 900 mg Q7D; SF2a/b, fed), Day 1): 0.000 (0.000) ng/mL
Mean Cmin (SD) [1]: 2750 (1089) ng/mL
Mean Ctrough (SD) [1]: 2780 (1047) ng/mL
Mean Ctrough (SD) (Panel I (450 mg BID Days 1-2, then 900 mg Q7D; SF2a/b, fed), Day 3): 4370 (976) ng/mL
Mean Ctrough (SD) (Panel I (450 mg BID Days 1-2, then 900 mg Q7D; SF2a/b, fed), Day 10): 1965 (35.4) ng/mL
Mean Ctrough (SD) (Panel I (450 mg BID Days 1-2, then 900 mg Q7D; SF2a/b, fed), Day 17): 1500 (113) ng/mL
Mean Cmin (SD) (Panel II (450 mg BID Days 1-2, then 450 mg Q3D/Q4D; SF2a/b, fed), Day 1): 0.000 (0.000) ng/mL
Mean Cmin (SD) [2]: 2492 (307) ng/mL
Mean Ctrough (SD) [2]: 2503 (293) ng/mL
Mean Ctrough (SD) (Panel II (450 mg BID Days 1-2, then 450 mg Q3D/Q4D; SF2a/b, fed), Day 3): 4132 (401) ng/mL
Mean Ctrough (SD) (Panel II (450 mg BID Days 1-2, then 450 mg Q3D/Q4D; SF2a/b, fed), Day 6): 2708 (429) ng/mL
Mean Ctrough (SD) (Panel II (450 mg BID Days 1-2, then 450 mg Q3D/Q4D; SF2a/b, fed), Day 10): 2340 (577) ng/mL
Mean Ctrough (SD) (Panel II (450 mg BID Days 1-2, then 450 mg Q3D/Q4D; SF2a/b, fed), Day 13): 2343 (639) ng/mL
Mean Ctrough (SD) (Panel II (450 mg BID Days 1-2, then 450 mg Q3D/Q4D; SF2a/b, fed), Day 17): 2088 (693) ng/mL
Mean Ctrough (Panel II (450 mg BID Days 1-2, then 450 mg Q3D/Q4D; SF2a/b, fed), Day 20): 2270 (652) ng/mL
Mean Ctrough (SD) (Panel II (450 mg BID Days 1-2, then 450 mg Q3D/Q4D; SF2a/b, fed), Day 24): 2016 (847) ng/mL
Mean Ctrough (SD) (Panel II (450 mg BID Days 1-2, then 450 mg Q3D/Q4D; SF2a/b, fed), Day 27): 1928 (605) ng/mL
Mean Cmin (SD) (Panel III (150 mg BID Days 1-2, then 300 mg Q7D; SF2a/b, fed), Day 1): 0.000 (0.000) ng/mL
Mean Cmin (SD) [3]: 899 (151) ng/mL
Mean Ctrough (SD) [3]: 899 (151) ng/mL
Mean Ctrough (SD) (Panel III (150 mg BID Days 1-2, then 300 mg Q7D; SF2a/b, fed), Day 3): 1582 (298) ng/mL
Mean Ctrough (SD) (Panel III (150 mg BID Days 1-2, then 300 mg Q7D; SF2a/b, fed), Day 10): 775 (99.3) ng/mL
Mean Ctrough (SD) (Panel III (150 mg BID Days 1-2, then 300 mg Q7D; SF2a/b, fed), Day 17): 700 (98.1) ng/mL
Mean Cmin (SD) (Panel IV (150 mg BID Days 1-2, then 150 mg Q3D/Q4D; SF2a/b, fed), Day 1): 0.000 (0.000) ng/mL
Mean Cmin (SD) [4]: 892 (257) ng/mL
Mean Ctrough (SD) [4]: 892 (257) ng/mL
Mean Ctrough (SD) (Panel IV (150 mg BID Days 1-2, then 150 mg Q3D/Q4D; SF2a/b, fed), Day 3): 1472 (385) ng/mL
Mean Ctrough (SD) (Panel IV (150 mg BID Days 1-2, then 150 mg Q3D/Q4D; SF2a/b, fed), Day 6): 865 (236) ng/mL
Mean Ctrough (SD) (Panel IV (150 mg BID Days 1-2, then 150 mg Q3D/Q4D; SF2a/b, fed), Day 10): 681 (234) ng/mL
Mean Ctrough (SD) (Panel IV (150 mg BID Days 1-2, then 150 mg Q3D/Q4D; SF2a/b, fed), Day 13): 689 (238) ng/mL
Mean Ctrough (SD) (Panel IV (150 mg BID Days 1-2, then 150 mg Q3D/Q4D; SF2a/b, fed), Day 17): 570 (269) ng/mL
Mean Ctrough (Panel IV (150 mg BID Days 1-2, then 150 mg Q3D/Q4D; SF2a/b, fed), Day 20): 710 (236) ng/mL
Mean Ctrough (SD) (Panel IV (150 mg BID Days 1-2, then 150 mg Q3D/Q4D; SF2a/b, fed), Day 24): 612 (239) ng/mL
Mean Ctrough (SD) (Panel IV (150 mg BID Days 1-2, then 150 mg Q3D/Q4D; SF2a/b, fed), Day 27): 623 (237) ng/mL
AUC [5]: 5680 ng·h/mL
Tmax [5]: 5 h
AUC [6]: 16800 ng·h/mL
Cmax [6]: 1810 ng/mL
Tmax [6]: 5 h
Cmax (human, plasma, oral, 150 mg, Panel IV (150 mg BID Days 1-2, then 150 mg Q3D/Q4D; SF2a/b, fed), Day 1): 753 ng/mL
AUC(0-t) (human, plasma, oral, 150 mg, Panel IV (150 mg BID Days 1-2, then 150 mg Q3D/Q4D; SF2a/b, fed), Day 3, read-out: Mean AUC24 h (SD)): 38600 ng·h/mL
AUC(0-t) (human, plasma, oral, 150 mg, Panel IV (150 mg BID Days 1-2, then 150 mg Q3D/Q4D; SF2a/b, fed), Day 3, read-out: Mean AUC72 h (SD)): 89200 ng·h/mL
Cmax [7]: 2120 ng/mL
Tmax [7]: 5 h
Cmax (human, plasma, oral, 150 mg, Panel IV (150 mg BID Days 1-2, then 150 mg Q3D/Q4D; SF2a/b, fed), Day 6): 1460 ng/mL
Cmax (human, plasma, oral, 150 mg, Panel IV (150 mg BID Days 1-2, then 150 mg Q3D/Q4D; SF2a/b, fed), Day 10): 1230 ng/mL
Cmax (human, plasma, oral, 150 mg, Panel IV (150 mg BID Days 1-2, then 150 mg Q3D/Q4D; SF2a/b, fed), Day 13): 1180 ng/mL
Cmax (human, plasma, oral, 150 mg, Panel IV (150 mg BID Days 1-2, then 150 mg Q3D/Q4D; SF2a/b, fed), Day 17, n = 3): 1210 ng/mL
Cmax (human, plasma, oral, 150 mg, Panel IV (150 mg BID Days 1-2, then 150 mg Q3D/Q4D; SF2a/b, fed), Day 20): 1200 ng/mL
Cmax (human, plasma, oral, 150 mg, Panel IV (150 mg BID Days 1-2, then 150 mg Q3D/Q4D; SF2a/b, fed), Day 24): 1260 ng/mL
AUC(0-t) (human, plasma, oral, 150 mg, Panel IV (150 mg BID Days 1-2, then 150 mg Q3D/Q4D; SF2a/b, fed), Day 27, read-out: Mean AUC24 h (SD)): 26000 ng·h/mL
AUC(0-t) (human, plasma, oral, 150 mg, Panel IV (150 mg BID Days 1-2, then 150 mg Q3D/Q4D; SF2a/b, fed), Day 27, read-out: Mean AUC72 h (SD)): 65800 ng·h/mL
AUC(0-t) (human, plasma, oral, 150 mg, Panel IV (150 mg BID Days 1-2, then 150 mg Q3D/Q4D; SF2a/b, fed), Day 27, read-out: Mean AUClast (SD)): 258000 ng·h/mL
AUC(0-inf) (human, plasma, oral, 150 mg, Panel IV (150 mg BID Days 1-2, then 150 mg Q3D/Q4D; SF2a/b, fed), Day 27, read-out: Mean AUC∞ (SD)): 274000 ng·h/mL
Cmax [8]: 1380 ng/mL
Tmax [8]: 5 h
AUC(0-t) (human, plasma, oral, 300 mg, Panel III (150 mg BID Days 1-2, then 300 mg Q7D; SF2a/b, fed), Day 3, read-out: Mean AUC24 h (SD)): 52400 ng·h/mL
AUC(0-t) (human, plasma, oral, 300 mg, Panel III (150 mg BID Days 1-2, then 300 mg Q7D; SF2a/b, fed), Day 3, read-out: Mean AUC72 h (SD)): 122000 ng·h/mL
Structure (SMILES): COc1cc(NC(C(=O)c2c[nH]c3ccc(OC(F)(F)F)cc23)c2ccc(Cl)cc2OC)cc(S(C)(=O)=O)c1 (centres unmarked) [Compound (a)]
maintaining exposures over time with weekly or twice weekly dosing (Panels I-IV, fed): feasible to maintain Compound (a) exposures over time

From patent US20250281457A1, “TREATMENT OR PREVENTION OF DENGUE VIRAL INFECTION” (Janssen Pharmaceuticals, Inc., priority 2022, published 2025)
